# Results taken from patent US20240240224A1, “FLUORESCENT D-TYPE AMINO ACID METABOLISM MARKER-BASED METHOD FOR DETECTING ANTIBACTERIAL DRUG SENSITIVITY TEST” (priority 2020, published 2024).
# Tests used:
# E.coli 1113 [1] = experiment: FDAA metabolic labeling susceptibility test (Cy5-DAA probe, flow cytometry); format: cell-based, Escherichia coli; conditions: Escherichia coli, 1113, 2 h, read-out: MIC, FDAA
# Method: (§1) The specific experimental steps are as follows: • 1. Take the colony to be tested that has been cultured overnight on the plate and fully mix it in normal saline to make a uniform bacterial solution. Dilute it into CAMHB medium to make a bacterial solution with OD600=0.05. • 2. Add 45 μl antibiotic solutions to be tested of different concentrations to 96-well plates (see Table 3 for antibiotic concentration gradient settings). • 3. Add 50 μl of bacterial solution prepared in Step 1 to the 96-well plate and mix well. • 4.5 μl of 10 mM Cy5-DAA probe was added to each well (final concentration was 0.15 mM, and its structure was shown in FIG. 1). After mixing, the probe was incubated for 2 hours in the dark. • 5. After dilution with 200 μl PBS solution, the fluorescence intensity of each sample was detected by flow cytometry. The flow detection results are shown in the attached FIG. 4-5, showing the curve of antibiotic concentration gradient and fluorescence intensity, and the MIC (minimum inhibitory concentration) is obtained by referring to this curve.
# E.coli 1146 [2] = experiment: as above; format: cell-based, Escherichia coli; conditions: Escherichia coli, 1146, 2 h, read-out: MIC, FDAA
# Method: as §1
# E.coli 1113 [3] = experiment: Vitek 2 drug sensitivity test; format: cell-based, Escherichia coli; as to Sensibility: key: S: Drug sensitive; R: Drug resistance
# E.coli 1146 [4] = experiment: Vitek 2 drug sensitivity test; format: cell-based, Escherichia coli; as to Sensibility: key: S: Drug sensitive; R: Drug resistance
# E. coli Ec11 [5] = experiment: BMD susceptibility test; format: cell-based, Escherichia coli; conditions: unit assumed
# E. coli Ec11 [6] = experiment: FaAST (FDAA metabolic labeling); format: cell-based, Escherichia coli; conditions: unit assumed
# Method: as §1
# (§2) Antibiotic resistant strains are shown in bold in the table below.
# Ec ATCC 25922 [7] = experiment: FaAST (FDAA metabolic labeling); format: cell-based, Escherichia coli; conditions: unit assumed
# Method: as §1, §2
# E. coli Ec13 [8] = experiment: BMD susceptibility test; format: cell-based, Escherichia coli; conditions: unit assumed
# E. coli Ec13 [9] = experiment: FaAST (FDAA metabolic labeling); format: cell-based, Escherichia coli; conditions: unit assumed
# Method: as §1, with “cytometry.” for “cytometry. The flow detection results are shown in the attached FIG. 4-5, showing the curve of antibiotic concentration gradient and fluorescence intensity, and the MIC (minimum inhibitory concentration) is obtained by referring to this curve.”
# Ec ATCC 25922 [10] = experiment: BMD susceptibility test; format: cell-based, Escherichia coli; conditions: unit assumed
# A. baumannii Ab16 [11] = experiment: BMD susceptibility test; format: cell-based, Acinetobacter baumannii; conditions: unit assumed
# A. baumannii Ab16 [12] = experiment: FaAST (FDAA metabolic labeling); format: cell-based, Acinetobacter baumannii; conditions: unit assumed
# Method: as §1, with “cytometry.” for “cytometry. The flow detection results are shown in the attached FIG. 4-5, showing the curve of antibiotic concentration gradient and fluorescence intensity, and the MIC (minimum inhibitory concentration) is obtained by referring to this curve.”
# A. baumannii Ab19 [13] = experiment: BMD susceptibility test; format: cell-based, Acinetobacter baumannii; conditions: unit assumed
# A. baumannii Ab19 [14] = experiment: FaAST (FDAA metabolic labeling); format: cell-based, Acinetobacter baumannii; conditions: unit assumed
# Method: as §1, §2
# K. pneumoniae Kp6 [15] = experiment: BMD susceptibility test; format: cell-based, Klebsiella pneumoniae; conditions: unit assumed
# K. pneumoniae Kp9 [16] = experiment: BMD susceptibility test; format: cell-based, Klebsiella pneumoniae; conditions: unit assumed
# K. pneumoniae Kp6 [17] = experiment: FaAST (FDAA metabolic labeling); format: cell-based, Klebsiella pneumoniae; conditions: unit assumed
# Method: as §1, with “cytometry.” for “cytometry. The flow detection results are shown in the attached FIG. 4-5, showing the curve of antibiotic concentration gradient and fluorescence intensity, and the MIC (minimum inhibitory concentration) is obtained by referring to this curve.”
# K. pneumoniae Kp9 [18] = experiment: FaAST (FDAA metabolic labeling); format: cell-based, Klebsiella pneumoniae; conditions: unit assumed
# Method: as §1, with “cytometry.” for “cytometry. The flow detection results are shown in the attached FIG. 4-5, showing the curve of antibiotic concentration gradient and fluorescence intensity, and the MIC (minimum inhibitory concentration) is obtained by referring to this curve.”
# [19] = test system: bacteria contained in alveolar lavage fluid; experiment: FDAA metabolic labeling susceptibility test of alveolar lavage fluid (Cy5-DAA probe); format: cell-based; conditions: alveolar lavage fluid of patients with hospital acquired pneumonia, 2 hours
# Method: (§3) With reference to the flow chart of the rapid detection method of antimicrobial susceptibility test based on FDAA metabolic markers shown in FIG. 3, FDAA is used for the detection of antimicrobial susceptibility test of alveolar lavage fluid. The specific experimental steps are as follows: • 1. Mix bronchoalveolar lavage fluid (BALF, 10 ml) of patients with hospital acquired pneumonia with cation regulated broth medium (CAMHB, 10 ml) of twice the concentration to prepare the bacterial fluid to be tested. • 2. Add 45 μl antibiotic solutions of different concentrations to the 96-well plate separately (see Table 1 for antibiotic concentration gradient settings). • 3. Add 50 μl of the bacterial solution prepared in step 1 to the 96-well plate and mix well. • 4. Add 5 μl of 10 mM Cy5-DAA probe (final concentration 0.15 mM, see FIG. 1 for its structure) into each well, mix well, and then cultivate in dark for 2 hours. • 5. Add 200 μl PBS solution for dilution, and then use flow cytometry to detect the fluorescence intensity of each sample.
# [20] = test system: bacteria contained in alveolar lavage fluid; experiment: Vitek 2 drug sensitivity test of alveolar lavage fluid; format: cell-based; as to Sensibility: key: S: Drug sensitive; R: Drug resistance
# [21] = test system: alveolar lavage fluid sample 0130, A. baumannii; experiment: BMD susceptibility test of patient alveolar lavage fluid; format: cell-based, Acinetobacter baumannii; conditions: unit assumed
# Excerpt: (§4) The results of antimicrobial susceptibility test of alveolar lavage fluid of seven patients using FDAA and BMD methods are shown in the following table. The drug-resistant bacteria are shown in bold.
# [22] = test system: alveolar lavage fluid sample 0206, A. baumannii; experiment: as above; format: cell-based, Acinetobacter baumannii; conditions: unit assumed
# Excerpt: as §4
# [23] = test system: alveolar lavage fluid sample 0219, A. baumannii; experiment: as above; format: cell-based, Acinetobacter baumannii; conditions: unit assumed
# Excerpt: as §4
# [24] = test system: alveolar lavage fluid sample 0130, A. baumannii; experiment: FaAST (FDAA) susceptibility test of patient alveolar lavage fluid; format: cell-based, Acinetobacter baumannii; conditions: unit assumed
# Method: as §3, §4
# [25] = test system: alveolar lavage fluid sample 0204, A. baumannii; experiment: as above; format: cell-based, Acinetobacter baumannii; conditions: unit assumed
# Method: as §3, §4
# [26] = test system: alveolar lavage fluid sample 0206, A. baumannii; experiment: as above; format: cell-based, Acinetobacter baumannii; conditions: unit assumed
# Method: as §3, §4
# [27] = test system: alveolar lavage fluid sample 0219, A. baumannii; experiment: as above; format: cell-based, Acinetobacter baumannii; conditions: unit assumed
# Method: as §3, §4
# [28] = test system: alveolar lavage fluid sample 0204, A. baumannii; experiment: BMD susceptibility test of patient alveolar lavage fluid; format: cell-based, Acinetobacter baumannii; conditions: unit assumed
# [29] = test system: alveolar lavage fluid sample 0203, K. pneumoniae; experiment: as above; format: cell-based, Klebsiella pneumoniae; conditions: unit assumed
# Excerpt: as §4
# [30] = test system: alveolar lavage fluid sample 0226, K. pneumoniae; experiment: as above; format: cell-based, Klebsiella pneumoniae; conditions: unit assumed
# Excerpt: as §4
# [31] = test system: alveolar lavage fluid sample 0203, K. pneumoniae; experiment: FaAST (FDAA) susceptibility test of patient alveolar lavage fluid; format: cell-based, Klebsiella pneumoniae; conditions: unit assumed
# Method: as §3, §4
# [32] = test system: alveolar lavage fluid sample 0226, K. pneumoniae; experiment: as above; format: cell-based, Klebsiella pneumoniae; conditions: unit assumed
# Method: as §3, §4
# Ec ATCC 25922 [33] = conditions: cited from earlier work
Structure (SMILES),BMD (MIC) (E. coli Ec11 [5]),FaAST (MIC) (E. coli Ec11 [6]),FaAST (MIC) (Ec ATCC 25922 [7]),BMD (MIC) (Ec ATCC 25922 [10]),BMD (MIC) (K. pneumoniae Kp6 [15]),FaAST (MIC) (K. pneumoniae Kp6 [17]),BMD (MIC) [21],BMD (MIC) [22],BMD (MIC) [23],FaAST (MIC) [24],FaAST (MIC) [25],FaAST (MIC) [26],FaAST (MIC) [27],BMD (MIC) [28],BMD (MIC) [29],BMD (MIC) [30],FaAST (MIC) [31],FaAST (MIC) [32],CLSI QC range (Ec ATCC 25922 [33]),further results
"CN(C)c1cc(NC(=O)CNC(C)(C)C)c(O)c2c1C[C@H]1C[C@H]3[C@H](N(C)C)C(O)=C(C(N)=O)C(=O)[C@@]3(O)C(O)=C1C2=O [Tigecycline, tigecycline]",≤ 0.25 µg/mL,≤ 0.25 µg/mL,≤ 0.25 µg/mL,≤ 0.25 µg/mL,≤ 0.25 µg/mL,≤ 0.25 µg/mL,2 µg/mL,1 µg/mL,1 µg/mL,2 µg/mL,0.5 µg/mL,8 µg/mL,64 µg/mL,0.5 µg/mL,1 µg/mL,1 µg/mL,0.125 µg/mL,0.5 µg/mL,0.03-0.25,"MIC (E.coli 1113 [1]): 1 µg/mL; MIC (E.coli 1146 [2]): 0.25 µg/mL; MIC, Vitek 2 (E.coli 1113 [3]): < 1 µg/mL; Sensibility (E.coli 1113 [3]): S; Sensibility (E.coli 1146 [4]): S; MIC (E.coli 1146 [4]; Escherichia coli): ≤ 0.25 µg/mL; BMD (MIC) (E. coli Ec13 [8]): ≤ 0.25 µg/mL; FaAST (MIC) (E. coli Ec13 [9]): ≤ 0.25 µg/mL; BMD (MIC) (A. baumannii Ab16 [11]): ≤ 0.25 µg/mL; FaAST (MIC) (A. baumannii Ab16 [12]): ≤ 0.25 µg/mL; BMD (MIC) (A. baumannii Ab19 [13]): ≤ 0.25 µg/mL; FaAST (MIC) (A. baumannii Ab19 [14]): 0.5 µg/mL; BMD (MIC) (K. pneumoniae Kp9 [16]): 0.5 µg/mL; FaAST (MIC) (K. pneumoniae Kp9 [18]): 0.25 µg/mL; MIC, FDAA [19]: 4 µg/mL; MIC [20]: 2 µg/mL; Sensibility [20]: S"
CO/N=C(\C(=O)N[C@@H]1C(=O)N2C(C(=O)O)=C(COC(N)=O)CS[C@H]12)c1ccco1 [Cefuroxime],4 µg/mL,8 µg/mL,8 µg/mL,4 µg/mL,2 µg/mL,4 µg/mL,,,,,,,,,,,,,2-8,
C[C@@H](O)[C@H]1C(=O)N2C(C(=O)O)=C(S[C@@H]3CN[C@H](C(=O)N(C)C)C3)[C@H](C)[C@H]12 [Meropenem],,,,,,,64 µg/mL,32 µg/mL,32 µg/mL,32 µg/mL,4 µg/mL,32 µg/mL,64 µg/mL,0.5 µg/mL,0.25 µg/mL,0.25 µg/mL,0.25 µg/mL,0.25 µg/mL,,
